Experiments:
Assay type in all cases: cell-based
[1] = system: Chikungunya virus (CHIKV); assay: microbe, parasite or virus in culture; conditions: Chikungunya virus, Vero, 48 h, read-out: Percent viral inhibition CHKV
[2] = system: dengue virus (DENV); assay: microbe, parasite or virus in culture; conditions: Dengue virus, Vero, 120 h, read-out: Percent viral inhibition DENY
[3] = system: Marburg virus (MARV); assay: organism not typed; conditions: Vero, 72 h, read-out: Percent viral inhibition MARV

| SMILES | inhibition at 1 µM [1] [%] | inhibition at 1 µM [2] [%] | inhibition at 1 µM [3] [%] |
| --- | --- | --- | --- |
| CCN1C[C@@H]2C[C@H]1CN2c1ccc(Oc2cc(CN3CCC(CC(=O)O)CC3)cc(-c3cc(Cl)cc(Cl)c3)n2)nn1 [Example 366, 2-(1-((2-(3,5-dichlorophenyl)-6-((6-((1S,4S)-5-ethyl-2,5-diazabicyclo[2.2.1]heptan-2-yl)pyridazin-3-yl)oxy)pyridin-4-yl)methyl)piperidin-4-yl)acetic acid] | 6.17 | 48.5 | 23.1 |
| CN1CCN(c2ncc(Oc3cc(CN4CCO[C@H](CCO)CC4)cc(-c4cc(Cl)cc(Cl)c4)n3)cn2)CC1 [Example 153, (S)-2-(4-((2-(3,5-dichlorophenyl)-6-((2-(4-methylpiperazin-1-yl)pyrimidin-5-yl)oxy)pyridin-4-yl)methyl)-1,4-oxazepan-7-yl)ethanol] | 14.1 | 41.5 | 56.8 |
| CN1CCN(c2ncc(Oc3cc(-c4cc(Cl)cc(Cl)c4)cc(CN4CCC(CC(=O)O)CC4)c3F)cn2)CC1 [Example 376, 2-(1-((3′,5′-dichloro-4-fluoro-5-((2-(4-methylpiperazin-1-yl)pyrimidin-5-yl)oxy)-[1,1′-biphenyl]-3-yl)methyl)piperidin-4-yl)acetic acid] | 13.5 | 0 | 12.7 |
| COC(=O)NCC1(F)CCN(Cc2cc(Oc3cnc(N4CCN(CCC(=O)O)CC4)nc3)nc(-c3cc(Cl)cc(Cl)c3)c2)CC1 [Example 51, 3-(4-(5-((6-(3,5-dichlorophenyl)-4-((4-fluoro-4-(((methoxycarbonyl)amino)methyl)piperidin-1-yl)methyl)pyridin-2-yl)oxy)pyrimidin-2-yl)piperazin-1-yl)propanoic acid] | 21.1 | 56.7 | 43.6 |
| CN1CCN(c2ncc(Oc3cc(CN4CCC(CNC(=O)NS(C)(=O)=O)CC4)cc(-c4cc(Cl)cc(Cl)c4)n3)cn2)CC1 [Example 326, N-(((1-((2-(3,5-dichlorophenyl)-6-((2-(4-methylpiperazin-1-yl)pyrimidin-5-yl)oxy)pyridin-4-yl)methyl)piperidin-4-yl)methyl)carbamoyl)methane-sulfonamide] | 22.7 | 45.5 | 63.9 |
| COC(=O)NCC1CCN(Cc2cc(Oc3cnc(N4CCN(CCC(=O)O)CC4)nc3)nc(-c3cc(Cl)cc(Cl)c3)c2)CC1 [Example 62, 3-(4-(5-((6-(3,5-dichlorophenyl)-4-((4-(((methoxycarbonyl)amino)methyl)piperidin-1-yl)methyl)pyridin-2-yl)oxy)pyrimidin-2-yl)piperazin-1-yl)propanoic acid] | 35.2 | 19.1 | 19.9 |
| CN1CCN(c2ncc(Oc3cc(CN4CCC(P(C)(C)=O)CC4)cc(-c4cc(Cl)cc(Cl)c4)n3)cn2)CC1 [Example 331, (1-((2-(3,5-dichlorophenyl)-6-((2-(4-methylpiperazin-1-yl)pyrimidin-5-yl)oxy)pyridin-4-yl)methyl)piperidin-4-yl)dimethylphosphineoxide] | 22.6 | 56.5 | 69.3 |
| NC1(CCO)CCN(c2ncc(Oc3cc(CN4CCC(CC(=O)O)CC4)cc(-c4cc(Cl)cc(Cl)c4)n3)cn2)CC1 [Example 124, 2-(1-((2-((2-(4-amino-4-(2-hydroxyethyl)piperidin-1-yl)pyrimidin-5-yl)oxy)-6-(3,5-dichlorophenyl)pyridin-4-yl)methyl)piperidin-4-yl) acetic acid] | 21.2 | 1.28 | 63.8 |
| CNC(=O)NCC1CCN(Cc2cc(Oc3ccc(N4CCN(CCS(C)(=O)=O)CC4)nc3)nc(-c3cc(Cl)cc(Cl)c3)c2)CC1 [Example 290, 1-((1-((2-(3,5-dichlorophenyl)-6-((6-(4-(2-(methylsulfonyl)ethyl)piperazin-1-yl)pyridin-3-yl)oxy)pyridin-4-yl)methyl)piperidin-4-yl)methyl)-3-methylurea] | 0 | 18.9 | 50.6 |
| CC(=O)NCC1CCN(Cc2cc(Oc3cnc(N4CCN(C(C)CCS(C)(=O)=O)CC4)nc3)nc(-c3cc(F)cc(Cl)c3)c2)CC1 (stereo not drawn) [Example 372, N-((1-((2-(3-chloro-5-fluorophenyl)-6-((2-(4-(4-(methylsulfonyl)butan-2-yl)piperazin-1-yl)pyrimidin-5-yl)oxy)pyridin-4-yl)methyl)piperidin-4-yl)methyl)acetamide] | 18.2 | 81.8 | 45.3 |
| CS(=O)(=O)CCCN1CCN(c2ncc(Oc3cc(CN4CCC(CC(=O)O)CC4)cc(-c4cc(Cl)cc(Cl)c4)n3)cn2)CC1 [Example 242, 2-(1-((2-(3,5-dichlorophenyl)-6-((2-(4-(3-(methylsulfonyl)propyl)piperazin-1-yl)pyrimidin-5-yl)oxy)pyridin-4-yl)methyl)piperidin-4-yl)acetic acid] | 31.9 | 16.4 | 55.5 |
| CC(CCN(C)C)N1CCN(c2ncc(Oc3cc(CN4CCC(CC(=O)O)CC4)cc(-c4cc(Cl)cc(Cl)c4)n3)cn2)CC1 (stereo not drawn) [Example 240, 2-(1-((2-(3,5-dichlorophenyl)-6-((2-(4-(4-(dimethylamino)butan-2-yl)piperazin-1-yl)pyrimidin-5-yl)oxy)pyridin-4-yl)methyl)piperidin-4-yl)acetic acid] | 28.5 | 36.8 | 67.4 |
| CN1CCCN(c2ncc(Oc3cc(CN4CCC(CC(=O)O)CC4)cc(-c4cc(Cl)cc(Cl)c4)n3)cn2)CC1 [Example 126, 2-(1-((2-(3,5-dichlorophenyl)-6-((2-(4-methyl-1,4-diazepan-1-yl)pyrimidin-5-yl)oxy)pyridin-4-yl)methyl)piperidin-4-yl)acetic acid] | 23.6 | 8.34 | 38.5 |
| CC(=O)CC1CCN(Cc2cc(Oc3cnc(N4CCN(C)CC4)nc3)nc(-c3cc(Cl)cc(Cl)c3)c2)CC1 [Example 155, 1-(1-((2-(3,5-dichlorophenyl)-6-((2-(4-methylpiperazin-1-yl)pyrimidin-5-yl)oxy)pyridin-4-yl)methyl)piperidin-4-yl)propan-2-one] | 14.5 | 8.98 | 42 |
| CCN1CCN(c2ccc(Oc3cc(CN4CCC(CC(=O)O)CC4)cc(-c4cc(Cl)cc(Cl)c4)n3)nn2)CC1 [Example 358, 2-(1-((2-(3,5-dichlorophenyl)-6-((6-(4-ethylpiperazin-1-yl)pyridazin-3-yl)oxy)pyridin-4-yl)methyl)piperidin-4-yl)acetic acid] | 20.4 | 67.1 | 49 |
| CNC(=O)NCC1CCN(Cc2cc(Oc3ccc(N4CCN(CCC(=O)O)CC4)nc3)nc(-c3cc(Cl)cc(Cl)c3)c2)CC1 [Example 41, 3-(4-(5-((6-(3,5-dichlorophenyl)-4-((4-((3-methylureido)methyl)piperidin-1-yl)methyl)pyridin-2-yl)oxy)pyridin-2-yl)piperazin-1-yl)propanoic acid] | 30.1 | 68.7 | 43 |

Reference: patent publication US20230011571A1, “SMALL MOLECULE FURIN INHIBITORS FOR TREATING INFECTIOUS DISEASES” (BP Asset V, Inc., priority 2019, published 2023)
